Assay results published in patent US9085555B2, “Complement pathway modulators and uses thereof” (priority 2011, dated 2015).

What follows are molecules tested against Factor D (Homo sapiens (Human), UniProt P00746) (assay: biochemical). Details: read-out: IC50.
Sequence of Factor D (P00746 26-253): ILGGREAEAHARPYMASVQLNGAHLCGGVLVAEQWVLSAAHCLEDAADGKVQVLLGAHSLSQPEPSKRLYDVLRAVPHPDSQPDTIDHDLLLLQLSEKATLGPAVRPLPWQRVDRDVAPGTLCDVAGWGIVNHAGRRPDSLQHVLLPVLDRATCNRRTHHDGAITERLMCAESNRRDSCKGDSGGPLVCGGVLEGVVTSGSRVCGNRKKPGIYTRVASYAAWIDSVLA
Assay type: biochemical
Work on `CC(C)(C)c1cc(NC(=O)[C@@H]2C[C@@H](F)CN2C(=O)Nc2cn(C(N)=O)c3ccccc23)ccn1` [Example 317, (2S,4R)-4-Fluoro-pyrrolidine-1,2-dicarboxylic acid 2-[(2-tert-butyl-pyridin-4-yl)-amide] 1-[(1-carbamoyl-1H-indol-3-yl)-amide]] yielded an IC50 of 2800 nM. `COC(=O)COc1ccc2c(c1)c(NC(=O)N1C[C@](C)(F)C[C@H]1C(=O)NCc1cccc(Cl)c1F)cn2C(N)=O` [Example 318, (1-carbamoyl-3-{[(2S,4R)-2-(3-chloro-2-fluoro-benzylcarbamoyl)-4-fluoro-4-methyl-pyrrolidine-1-carbonyl]amino}-1H-indol-5-yloxy)-acetic acid methyl ester] was tested, and the IC50 was 3 nM. `NC(=O)n1cc(NC(=O)N2C[C@H](F)C[C@H]2C(=O)N[C@H](c2cccc(Cl)c2)C(F)(F)F)c2ccccc21` [Example 319, (2S,4R)-4-Fluoro-pyrrolidine-1,2-dicarboxylic acid 1-[(1-carbamoyl-1H-indol-3-yl)-amide] 2-{[(R)-1-(3-chloro-phenyl)-2,2,2-trifluoro-ethyl]-amide}] showed an IC50 of 548 nM. Molecule `NC(=O)n1cc(NC(=O)N2[C@@H]3C[C@@H]3C[C@H]2C(=O)N[C@H](CO)c2cccc(Cl)c2)c2ccccc21` [Example 320, (1R,3S,5R)-2-Aza-bicyclo[3.1.0]hexane-2,3-dicarboxylic acid 2-[(1-carbamoyl-1H-indol-3-yl)-amide] 3-{[(S)-1-(3-chloro-phenyl)-2-hydroxy-ethyl]-amide}] has an IC50 of 7 nM. With `NC(=O)n1cc(NC(=O)N2CCS[C@H]2C(=O)Nc2cncc(Br)c2)c2ccccc21` [Example 321, (S)-Thiazolidine-2,3-dicarboxylic acid 3-[(1-carbamoyl-1H-indol-3-yl)-amide] 2-[(5-bromo-pyridin-3-yl)-amide]] the IC50 was 85 nM. With `CN1CCN(C(=O)c2cc(Cl)c(F)c(CNC(=O)[C@@H]3C[C@@H](F)CN3C(=O)Nc3cn(C(N)=O)c4ccccc34)c2)CC1` [Example 322, (2S,4R)-4-Fluoro-pyrrolidine-1,2-dicarboxylic acid 1-[(1-carbamoyl-1H-indol-3-yl)-amide] 2-[3-chloro-2-fluoro-5-(4-methyl-piperazine-1-carbonyl)-benzylamide]] the IC50 was 348 nM. Work on `NC(=O)n1cc(NC(=O)N2C[C@H](F)C[C@H]2C(=O)Nc2ccncc2F)c2ccccc21` [Example 323, (2S,4R)-4-Fluoro-pyrrolidine-1,2-dicarboxylic acid 1-[(1-carbamoyl-1H-indol-3-yl)-amide] 2-[(3-fluoro-pyridin-4-yl)-amide]] yielded an IC50 of 902 nM. `NC(=O)c1cccc(NC(=O)[C@@H]2CCCN2C(=O)Nc2cn(C(N)=O)c3ccccc23)c1` [Example 324, (S)-Pyrrolidine-1,2-dicarboxylic acid 1-[(1-carbamoyl-1H-indol-3-yl)-amino] 2-[(3-carbamoyl-phenyl)-amide]] gave an IC50 of 4250 nM. Work on `CS(=O)(=O)c1cccc(NC(=O)[C@@H]2CCCN2C(=O)Nc2cn(C(N)=O)c3ccccc23)c1` [Example 325, (S)-Pyrrolidine-1,2-dicarboxylic acid 1-[(1-carbamoyl-1H-indol-3-yl)-amide] 2-[(3-methanesulfonyl-phenyl)-amide]] yielded an IC50 of 2250 nM. Work on `NC(=O)n1cc(NC(=O)N2C[C@H](F)C[C@H]2C(=O)Nc2ncccc2F)c2ccccc21` [Example 327, (2S,4R)-4-Fluoro-pyrrolidine-1,2-dicarboxylic acid 1-[(1-carbamoyl-1H-indol-3-yl)-amide] 2-[(3-fluoro-pyridin-2-yl)-amide]] yielded an IC50 of 1700 nM. `CN(C)CCN(C)c1cc(Cl)c(F)c(CNC(=O)[C@@H]2C[C@@H](F)CN2C(=O)Nc2cn(C(N)=O)c3ccccc23)c1` [Example 329, (2S,4R)-4-Fluoro-pyrrolidine-1,2-dicarboxylic acid 1-[(1-carbamoyl-1H-indol-3-yl)-amide] 2-{3-chloro-5-[(2-dimethylamino-ethyl)-methyl-amino]-2-fluoro-benzylamide}] showed an IC50 of 181 nM. In the case of `CC(C)(C)c1cccc(NC(=O)[C@@H]2CC3CC3N2C(=O)Nc2cn(C(N)=O)c3ccccc23)c1` (stereo partly drawn) [Example 330, (1R,3S,5R)-2-Aza-bicyclo[3.1.0]hexane-2,3-dicarboxylic acid 3-[(3-tert-butyl-phenyl)-amide] 2-[(1-carbamoyl-1H-indol-3-yl)-amide]], the IC50 is reported as 250 nM. For `NC(=O)n1cc(NC(=O)N2C[C@@H](O)C[C@H]2C(=O)NCc2cccc(Cl)c2F)c2ccccc21` [Example 331, (2S,4S)-4-Hydroxy-pyrrolidine-1,2-dicarboxylic acid 1-[(1-carbamoyl-1H-indol-3-yl)-amide] 2-(3-chloro-2-fluoro-benzylamide)], the IC50 was 35 nM. `CCOC(=O)c1cc(Br)c(F)c(NC(=O)[C@@H]2C[C@@H](F)CN2C(=O)Nc2cn(C(N)=O)c3ccccc23)c1` [Example 333, 3-Bromo-5-{[(2S,4R)-1-(1-carbamoyl-1H-indol-3-ylcarbamoyl)-4-fluoro-pyrrolidine-2-carbonyl]-amino}-4-fluoro-benzoic acid ethyl ester] gave an IC50 of 47 nM. `C=CCOc1ccc2c(c1)c(NC(=O)N1CCC[C@H]1C(=O)Nc1cccc(OC(F)(F)F)c1)cn2C(N)=O` [Example 335, (S)-Pyrrolidine-1,2-dicarboxylic acid 1-[(5-allyloxy-1-carbamoyl-1H-indol-3-yl)-amide] 2-[(3-trifluoromethoxy-phenyl)-amide]] gave an IC50 of 550 nM. Molecule `C[C@@H]1CC[C@@H](C(=O)Nc2cccc(OC(F)(F)F)c2)N1C(=O)Nc1cn(C(N)=O)c2ccccc12` [Example 336, (2S,5R)-5-Methyl-pyrrolidine-1,2-dicarboxylic acid 1-[(1-carbamoyl-1H-indol-3-yl)-amide]2-[(3-trifluoromethoxy-phenyl)-amide]] has an IC50 of 750 nM. Work on `C[C@H]1CC[C@@H](C(=O)Nc2cccc(OC(F)(F)F)c2)N1C(=O)Nc1cn(C(N)=O)c2ccccc12` [Example 337, (2S,5S)-5-Methyl-pyrrolidine-1,2-dicarboxylic acid 1-[(1-carbamoyl-1H-indol-3-yl)-amide]2-[(3-trifluoromethoxy-phenyl)-amide]] yielded an IC50 of 250 nM. `CC[C@@H]1CC[C@@H](C(=O)Nc2cccc(OC(F)(F)F)c2)N1C(=O)Nc1cn(C(N)=O)c2ccccc12` [Example 338, (2S,5R)-5-Ethyl-pyrrolidine-1,2-dicarboxylic acid 1-[(1-carbamoyl-1H-indol-3-yl)-amide]2-[(3-trifluoromthoxy-phenyl)-amide]] showed an IC50 of 18900 nM. In the case of `NC(=O)n1cc(NC(=O)N2C[C@H](F)C[C@H]2C(=O)Nc2cc(Cl)cc(C(=O)O)c2)c2ccccc21` [Example 339, 3-Chloro-5-{[(2S,4R)-1-(1-carbamoyl-1H-indol-3-ylcarbamoyl)-4-fluoro-pyrrolidine-2-carbonyl]-amino}-benzoic acid], the IC50 is reported as 65 nM. Molecule `NC(=O)n1cc(NC(=O)N2CCS[C@H]2C(=O)Nc2cc(Br)cc(C(=O)O)c2)c2ccccc21` [Example 341, 3-Bromo-5-{[(S)-3-(1-carbamoyl-1H-indol-3-ylcarbamoyl)-thiazolidine-2-carbonyl]-amino}-benzoic acid] has an IC50 of 95 nM. In the case of `COc1ccc2c(c1)c(NC(=O)N1[C@@H]3C[C@@H]3C[C@H]1C(=O)Nc1cc(Br)cc(C(=O)O)c1)cn2C(N)=O` [Example 342, 3-Bromo-5-{[(1R,3S,5R)-2-(1-carbamoyl-5-methoxy-1H-indol-3-ylcarbamoyl)-2-aza-bicyclo[3.1.0]hexane-3-carbonyl]-amino}-benzoic acid], the IC50 is reported as 55 nM. Molecule `NC(=O)n1cc(NC(=O)N2C[C@H](F)C[C@H]2C(=O)Nc2cc(C(=O)O)cc(Br)c2F)c2ccccc21` [Example 343, 3-Bromo-5-{[(2S,4R)-1-(1-carbamoyl-1H-indol-3-ylcarbamoyl)-4-fluoro-pyrrolidine-2-carbonyl]-amino}-4-fluoro-benzoic acid] has an IC50 of 30 nM. `NC(=O)n1cc(NC(=O)N2[C@@H]3C[C@@H]3C[C@H]2C(=O)Nc2cc(Br)cc(-c3nnn[nH]3)c2)c2ccccc21` [Example 344, (1R,3S,5R)-2-Aza-bicyclo[3.1.0]hexane-2,3-dicarboxylic acid 3-{[3-bromo-5-(1H-tetrazol-5-yl)-phenyl]-amide}2-[(1-carbamoyl-1H-indol-3-yl)-amide]] showed an IC50 of 68 nM. Work on `CC(C)(C)n1nnnc1-c1cc(Br)cc(NC(=O)[C@@H]2C[C@H]3C[C@H]3N2C(=O)Nc2cn(C(N)=O)c3ccccc23)c1` [Example 345, (1R,3S,5R)-2-Aza-bicyclo[3.1.0]hexane-2,3-dicarboxylic acid 3-{[3-bromo-5-(1-tert-butyl-1H-tetrazol-5-yl)-phenyl]-amide}2-[(1-carbamoyl-1H-indol-3-yl)-amide]] yielded an IC50 of 800 nM. `NC(=O)n1cc(NC(=O)N2C[C@H](F)C[C@H]2C(=O)NCc2cc(-c3nnn[nH]3)cc(Cl)c2F)c2ccccc21` [Example 346, (2S,4R)-4-Fluoro-pyrrolidine-1,2-dicarboxylic acid 1-[(1-carbamoyl-1H-indol-3-yl)-amide]2-[3-chloro-2-fluoro-5-(1H-tetrazol-5-yl)-benzylamide]] was tested, and the IC50 was 69 nM. For `CC(C)(C)n1nnnc1-c1cc(Cl)c(F)c(CNC(=O)[C@@H]2C[C@@H](F)CN2C(=O)Nc2cn(C(N)=O)c3ccccc23)c1` [Example 347, (2S,4R)-4-Fluoro-pyrrolidine-1,2-dicarboxylic acid 2-[5-(1-tert-butyl-1H-tetrazol-5-yl)-3-chloro-2-fluoro-benzylamide]1-[(1-carbamoyl-1H-indol-3-yl)-amide]], the IC50 was 677 nM. Work on `NC(=O)n1cc(NC(=O)N2CC[C@H](F)[C@H]2C(=O)NCc2cccc(Cl)c2)c2ccccc21` [Example 348, 2R,3S)-3-Fluoro-pyrrolidine-1,2-dicarboxylic acid 1-[(1-carbamoyl-1H-indol-3-yl)-amide]2-(3-chloro-benzylamide] yielded an IC50 of 200 nM. Molecule `NC(=O)n1cc(NC(=O)N2CC[C@@H](F)[C@H]2C(=O)NCc2cccc(Cl)c2)c2ccccc21` [Example 349, 2R,3R)-3-Fluoro-pyrrolidine-1,2-dicarboxylic acid 1-[(1-carbamoyl-1H-indol-3-yl)-amide]2-(3-chloro-benzylamide] has an IC50 of 150 nM. `C[C@@H]1CC[C@@H](C(=O)NCc2cccc(Cl)c2F)N1C(=O)Nc1cn(C(N)=O)c2ccccc12` [Example 350, 2S,5R)-5-Methyl-pyrrolidine-1,2-dicarboxylic acid 1-[(1-carbamoyl-1H-indol-3-yl)-amide]2-(3-chloro-2-fluoro-benzylamide] showed an IC50 of 85 nM.
